Data on one compound can be found in publication PMC467104, “Novel NO-TZDs and trimethoxychalcone-based DHPMs: design, synthesis, and biological evaluation as potential VEGFR-2 inhibitors” (Journal of Enzyme Inhibition and Medicinal Chemistry, 2024).

As a reminder, the IC50 is the midpoint of a concentration-inhibition curve. Low values mean higher potency, high ones lower potency.

The target in the experiment is T1, VEGFR-2 (Homo sapiens, UniProt P35968).
T1 construct: gene KDR
Briefly: BPS Bioscience KDR kinase assay (Kinase-Glo Max/ADP-Glo luminescence). The class given is biochemical. (In Kinase-Glo more light means more ATP remaining.)

T1 sequence (P35968 20-1356): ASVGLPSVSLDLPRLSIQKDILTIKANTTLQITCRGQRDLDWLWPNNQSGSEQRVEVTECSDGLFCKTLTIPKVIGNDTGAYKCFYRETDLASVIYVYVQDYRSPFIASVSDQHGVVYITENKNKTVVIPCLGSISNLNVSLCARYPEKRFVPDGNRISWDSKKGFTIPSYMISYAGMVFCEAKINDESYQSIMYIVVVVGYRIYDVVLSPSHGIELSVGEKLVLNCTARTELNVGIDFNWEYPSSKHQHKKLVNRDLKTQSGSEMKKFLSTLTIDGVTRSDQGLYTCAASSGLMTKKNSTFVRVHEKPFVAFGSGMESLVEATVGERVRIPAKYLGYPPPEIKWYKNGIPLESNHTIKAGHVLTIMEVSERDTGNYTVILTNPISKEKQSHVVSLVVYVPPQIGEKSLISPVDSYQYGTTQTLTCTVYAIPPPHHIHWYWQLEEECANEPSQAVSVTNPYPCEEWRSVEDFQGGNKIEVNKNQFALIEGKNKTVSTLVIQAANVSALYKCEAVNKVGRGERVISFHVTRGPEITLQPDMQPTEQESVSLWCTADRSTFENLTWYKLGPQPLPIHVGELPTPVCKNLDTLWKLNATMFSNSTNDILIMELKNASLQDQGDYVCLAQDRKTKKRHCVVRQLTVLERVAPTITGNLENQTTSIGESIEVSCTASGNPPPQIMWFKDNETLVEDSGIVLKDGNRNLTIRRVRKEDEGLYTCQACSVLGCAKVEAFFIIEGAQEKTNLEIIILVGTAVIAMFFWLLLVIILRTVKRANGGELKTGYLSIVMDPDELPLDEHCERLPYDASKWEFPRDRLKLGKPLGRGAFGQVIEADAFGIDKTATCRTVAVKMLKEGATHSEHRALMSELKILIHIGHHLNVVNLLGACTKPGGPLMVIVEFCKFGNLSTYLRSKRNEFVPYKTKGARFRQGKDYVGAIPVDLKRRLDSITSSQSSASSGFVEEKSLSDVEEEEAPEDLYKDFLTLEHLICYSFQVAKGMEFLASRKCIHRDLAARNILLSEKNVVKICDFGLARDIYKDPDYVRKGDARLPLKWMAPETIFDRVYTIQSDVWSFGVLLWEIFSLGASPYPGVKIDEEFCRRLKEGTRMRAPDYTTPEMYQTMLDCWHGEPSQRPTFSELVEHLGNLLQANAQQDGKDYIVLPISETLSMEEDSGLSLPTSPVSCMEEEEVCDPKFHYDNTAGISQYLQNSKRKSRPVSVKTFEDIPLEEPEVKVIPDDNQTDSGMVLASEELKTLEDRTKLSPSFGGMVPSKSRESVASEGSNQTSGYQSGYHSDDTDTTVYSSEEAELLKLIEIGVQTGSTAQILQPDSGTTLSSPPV

In the case of `CCOC(=O)C1=C(C)NC(SCC(=O)Nc2ccc(C(=O)/C=C/c3cc(OC)c(OC)c(OC)c3)cc2)=N[C@@H]1c1ccc(O)c(OC)c1` [CDHPM-10e, Ethyl (R,E)-4–(4-hydroxy-3-methoxyphenyl)-6-methyl-2-((2-oxo-2-((4–(3-(3,4,5-trimethoxyphenyl)acryloyl)phenyl)amino)ethyl)thio)-1,4-dihydropyrimidine-5-carboxylate], the concentration for half-maximal inhibition (IC50) is 112 nM.
